≈ marks a conversion by molar mass, not a printed value. Where two headings read alike, the source gives them in different places.
Columns and labels:
[1] = aqueous solubility; assay type: physicochemical; settings: water
[2] = estimation of toxicity in tumor-bearing nude mice (body weight, blood cells, survival); assay type: in vivo, mouse; settings: for BWC (body weight change): BO
Method: (§1) In one typical set of experiments, four human breast carcinomas xenotransplanted into female Ncr: nu/nu (Taconic, Germantown, U.S.A.) or male Bom: NMRI-nu/nu mice (Bomholtgaard, Ry, Denmark) were used for the evaluation of antitumor activity. Mice weighing 20-25 g at the start of experiments were held under sterile conditions at 24-26° C., 50% relative humidity and 12 hours light-dark rhythm in laminar flow shelves. The animals received autoclaved food and bedding; the drinking water was filtered and acidified (pH4.0).
(§2) The following breast carcinoma cell lines were used: BO; MCF-7 (NCI, U.S.A.); MT-1 and MT-3. The tumors BO and MCF-7 are ER^+ models: the carcinomas MT-1 and MT-3 are ER^- ones. Tumors were transplanted subcutaneously (s.c.) as pieces (2×2 mm) into the left flank of 5-8 nude mice/experimental group. Drug treatment was initiated when the tumors reached a diameter of 4-5 mm. Compounds were solubized with Tween 80 (maximum 10% of final volume) and suspended in saline. Suspensions were preparted freshly for each drug administration and injected in a volume of 0.2 mL/20 g body weight employing a once-weekly schedule (x3). Tumor size was measured twice weekly with a caliper. Median tumor volume/group was related to the first treatment day and expressed as Relative Tumor Volume (RTV). For the estimation of toxicity, body weight was determined twice weekly and the mean percentage body weight change (BCC) was calculated. In one experiment blood was obtained from the retroorbital venous plexus of mice and blood cells were determined with a Coulter counter (Model T41).

[3] = tested on: breast carcinoma BO; test: in vivo antitumor test, human breast carcinoma BO xenotransplanted in nude mice; settings: for Relative tumor volume (T/C %) / evaluation: BO
Method: as §1
as §2, with “T41). […]” for “T41).”

[4] = tested on: human breast cancer cell lines; settings: words, prior PCT compound; cited from earlier work
[5] = tested on: LX4; test: in vitro inhibition of growth of human lung cancer cell line LX4 (Table 1); assay type: cell-based
From the text: (§3) Tables 1 to 4 at the end of the present description show in vitro test results obtained in various sets of experiments for the cytotoxic activity of several of the benzazole compounds concerned, including also for reference results for the compound CJM 126 and comparative results for compound DF129, when tested against a range of tumor cell lines which includes ovarian, lung and certain colon and renal cancer cells from the National Cancer Institute (USA) collection. As usual the results are expressed in terms of IS50 values (concentration or dosage required to reduce cell growth or proliferation by 50%) calculated from dose-effect curves plotted for cultures of the cells in question.
(§4) In carrying out the in vitro studies, the cytotoxicity assays may be carried out by a method corresponding substantially to the following example:
(§5) Cells were maintained in a continuous logarithmic culture in Dublecco's medium supplemented with 10% fetal calf serum and penicillin (100 IU/ml) and streptomycin ([…]). The cells were mildly trypsinized for passage and for use in assays. On day zero, 100 μl of trypsinized tumor cells (1×10^4 /ml) were plated in the wells of 96-well flat-bottom microtiter plates. The plates were incubated for 2 days at 37° C. and 5% CO2 in air to allow the cells to adhere and resume exponential growth prior to the addition of drugs.
(§6) On day two 50 μl of the highest drug concentration was added to the wells of column 12 and from there serially diluted 3-fold to column 1 by serial transfer of 50 μl using an 8-channel micropipette. The final volume of column 1 was adjusted to 100 μl. No additions were made to the wells of rows A and B, which served as controls. The plates were further incubated for 5 days at 37° C. and 5% CO2 in air. Each compound was tested in duplicate.
(§7) On day 7 the test was terminated by the addition of 100 μl saline containing 0.002% w/v propidium iodide (Sigma), 0.3% drawing ink (Staedtler "Marsmatic 745"--Trade Mark) and 0.5% Triton X-100. The plates were kept at 4° C. overnight before reading on an inverted microscope equipped with an automated scanning stage. Fluorescence intensity was measured in arbitrary units by a photomultiplier. An HP-87 computer controlled the movement of the stage and also collected and processed the data from the multiplier.
(§8) For each compound tested a dose-response curve was obtained and the IC50 value (the drug concentration at 50% inhibition of cell growth) was calculated.

[6] = tested on: lung cancer cell lines; test: in vitro inhibition of lung cancer cell lines; assay type: cell-based, human; settings: words, Table 1
From the text: as §3
(§9) In carrying out the in vitro studies, the cytotoxicity assays may be carried out by a method corresponding substantially to the following example: […]
as §7, with “An HP-87 computer controlled the movement of the stage and also collected and processed the data from the multiplier.” left out

[7] = tested on: L23/R; test: in vitro inhibition of growth of human lung cancer cell line L23/R (Table 1); assay type: cell-based
From the text: as §3, §4, §5, §6, §7, §8

[8] = tested on: H69/P; test: in vitro inhibition of growth of human lung cancer cell line H69/P (Table 1); assay type: cell-based
From the text: as §3, §4, §5, §6, §7, §8

[9] = tested on: MOR/R; test: in vitro inhibition of growth of human lung cancer cell line MOR/R (Table 1); assay type: cell-based; settings: MOR/R (multidrug resistant line)
From the text: as §3, §4, §5, §6, §7, §8

[10] = tested on: MOR/P; test: in vitro inhibition of growth of human lung cancer cell line MOR/P (Table 1); assay type: cell-based; settings: MOR/P (parental line)
From the text: as §3, §4, §5, §6, §7, §8

[11] = tested on: L23/P; test: in vitro inhibition of growth of human lung cancer cell line L23/P (Table 1); assay type: cell-based
From the text: as §3, §4, §5, §6, §7, §8

[12] = tested on: CH1; test: in vitro activity against human ovarian cell line CH1 (Table 2); assay type: cell-based
From the text: (§10) As usual the results are expressed in terms of IS50 values (concentration or dosage required to reduce cell growth or proliferation by 50%) calculated from dose-effect curves plotted for cultures of the cells in question.
as §4, §5, §6
(§11) The plates were kept at 4° C. overnight before reading on an inverted microscope equipped with an automated scanning stage. Fluorescence intensity was measured in arbitrary units by a photomultiplier. An HP-87 computer controlled the movement of the stage and also collected and processed the data from the multiplier.

[13] = tested on: ER-tumors MT-1 and MT-3; settings: words, background statement; cited from earlier work
[14] = tested on: A2780-cisR; test: in vitro activity against human ovarian cell line A2780-cisR (Table 2); assay type: cell-based; settings: A2780-cisR (platinum-resistant)
From the text: as §10, §4, §5, §6, §11

[15] = tested on: CH1-cisR; test: in vitro activity against human ovarian cell line CH1-cisR (Table 2); assay type: cell-based
From the text: as §10, §4, §5, §6, §11

[16] = tested on: A2780; test: in vitro activity against human ovarian cell line A2780 (Table 2); assay type: cell-based; settings: A2780 (parental line)
From the text: as §10, §4, §5, §6, §11

[17] = tested on: MDA 468; test: in vitro inhibitory activity against human breast tumour cell line MDA 468 (Table 4); assay type: cell-based; settings: initial seeding density 2.5 × 10^2 cells/well
From the text: as §3, §4, §5, §6, §7, §8
(§12) *Initial seeding density 2.5 × 10^2 cells/well

[18] = tested on: MOR/CPR; test: in vitro inhibition of growth of human lung cancer cell line MOR/CPR (Table 1); assay type: cell-based; settings: Homo sapiens; MOR/CPR (cisplatin resistant line)
From the text: as §3, §4, §5, §6, §7, §8

[19] = tested on: ovarian cancer cell lines; test: in vitro inhibition of ovarian cancer cell lines; assay type: cell-based, human; settings: words, Table 2
From the text: as §3, §9
as §7, with “An HP-87 computer controlled the movement of the stage and also collected and processed the data from the multiplier.” left out

[20] = tested on: MCF-7B; test: in vitro inhibitory activity against human breast tumour cell line MCF-7B (Table 4); assay type: cell-based; settings: initial seeding density 2.5 × 10^2 cells/well
From the text: as §3, §4, §5
as §6, with “The plates were further incubated for 5 days at 37° C. and 5% CO2 in air. Each compound was tested in duplicate.” left out
as §7, with “An HP-87 computer controlled the movement of the stage and also collected and processed the data from the multiplier.” left out

[21] = tested on: MCF-7wt; test: in vitro inhibitory activity against human breast tumour cell line MCF-7wt (Table 4); assay type: cell-based; settings: initial seeding density 2.5 × 10^2 cells/well
From the text: as §3, §4, §5, §6, §7, §8, §12

[22] = tested on: L88; test: in vitro inhibition of growth of human lung cancer cell line L88 (Table 1); assay type: cell-based
From the text: as §3, §4, §5
as §6, with “The plates were further incubated for 5 days at 37° C. and 5% CO2 in air. Each compound was tested in duplicate.” left out
as §7, with “An HP-87 computer controlled the movement of the stage and also collected and processed the data from the multiplier.” left out

[23] = tested on: human breast cancer cell lines; test: in vitro inhibition of human breast cancer cell lines; assay type: cell-based; settings: words, Table 4
From the text: as §3, §4, §5, §6, §7, §8

[24] = qd 27, 34, 41, 20 mg/Kg/inj. i.p.
[25] = qd 27, 34, 41, 200 mg/Kg/inj. i.p. (Table 5)
[26] = qd 27, 34, 41, 1 mg/Kg/inj. i.p.
[27] = qd 27, 34, 41, 10 mg/Kg/inj. i.p.
[28] = qd 27, 34, 41, 100 mg/Kg/inj. i.p.

O=S(=O)([O-])Nc1ccc(-c2nc3ccccc3s2)cc1.[Na+]
solubility [1]: ~10000 µg/mL

Nc1cccc(-c2nc3ccccc3s2)c1 [2-(3-Aminophenyl)-benzothiazole]
BWC (body weight change) ([2]; qd 27, 34, 41, 2 mg/Kg/inj. i.p.): 2%
BWC (body weight change) [2, 24]: -3%
BWC (body weight change) [2, 25]: -6%
Relative tumor volume (T/C %) ([3]; qd 27, 34, 41, 2 mg/Kg/inj. i.p., not marked significant): 78%
evaluation [3, 24]: + (T/C % = 36-50%)
Relative tumor volume (T/C %) ([3]; qd 27, 34, 41, 20 mg/Kg/inj. i.p., * significant versus controls (p < 0.05)): 48%
evaluation [3, 25]: ++ (T/C = 21-35%)
Relative tumor volume (T/C %) ([3]; qd 27, 34, 41, 200 mg/Kg/inj. i.p. (Table 5), * significant versus controls (p < 0.05)): 32%
inhibitory effects against the breast carcinoma BO ([3]; words): elicited inhibitory effects

Nc1ccc(-c2nc3ccccc3s2)cc1 [CJM126, 2-(4'-Aminophenyl)benzothiazole]
specific inhibitory activity in respect of certain human breast cancer cell lines [4]: remarkably high specific inhibitory activity
IC50 [5]: > 10 µM
activity against lung cancer cell lines [6]: not very sensitive
BWC (body weight change) [2, 26]: -5%
BWC (body weight change) [2, 27]: -4%
BWC (body weight change) [2, 28]: -7%
influence on body weight, dose dependence ([2]; words): relatively independent of dose
evaluation [3, 26]: + (T/C % = 36-50%)
Relative tumor volume (T/C %) ([3]; qd 27, 34, 41, 1 mg/Kg/inj. i.p., * significant versus controls (p < 0.05)): 41%
evaluation [3, 27]: (+) (T/C % ≥ 51%)
Relative tumor volume (T/C %) ([3]; qd 27, 34, 41, 10 mg/Kg/inj. i.p., * significant versus controls (p < 0.05)): 52%
evaluation [3, 28]: (+) (T/C % ≥ 51%)
Relative tumor volume (T/C %) ([3]; qd 27, 34, 41, 100 mg/Kg/inj. i.p., * significant versus controls (p < 0.05)): 52%
influence on tumor growth, dose dependence ([3]; words): relatively independent of dose
inhibitory effects against the breast carcinoma BO ([3]; words): elicited inhibitory effects
IC50 [7]: > 10 µM
IC50 [8]: > 10 µM
IC50 [9]: > 10 µM
IC50 [10]: > 10 µM
IC50 [11]: > 10 µM
solubility [1]: 3.8 µg/mL (≈ 16.8 µM)

N.N.[Cl][Pt][Cl] [Cisplatin]
IC50 [12]: 0.1 µM
responsiveness of MT-1 and MT-3 tumors to drug [13]: only modestly sensitive
IC50 [14]: 5.2 µM
IC50 [15]: 0.7 µM
IC50 [16]: 0.33 µM

O=C(CCl)Nc1ccc(-c2nc3ccccc3s2)cc1 [DF180, 2-(4'-Chloroacetamidophenyl)benzothiazole]
IC50 [17]: 0.04 µM
IC50 ([12]; Homo sapiens): 1.6 µM
IC50 [5]: 3 µM
IC50 [7]: 1.5 µM
IC50 [18]: 10 µM
activity against two cisplatin resistant cell lines compared with the parental line [19]: substantially equiactive
activity in respect of the ovarian cancer cell lines [19]: most active by far
IC50 [8]: 3 µM
IC50 [9]: 6 µM
IC50 [10]: 6 µM
IC50 [20]: 0.5 µM
IC50 [21]: 0.004 µM
IC50 [22]: 6 µM
IC50 [11]: 1.5 µM
IC50 ([14]; Homo sapiens, A2780cisR): 1.6 µM
IC50 ([15]; Homo sapiens, CH1cisR): 2.6 µM
IC50 ([16]; Homo sapiens): 1.25 µM
inhibitory activity in respect of breast cancer cell lines [23]: useful degree of inhibitory activity

Nc1ccc(-c2nc3ccccc3s2)cc1Br [DF209, 2-(4'-amino-3'-bromophenyl)benzothiazole]
IC50 [17]: < 0.001 µM
IC50 [20]: 0.001 µM
IC50 [21]: < 0.001 µM
potency against breast cancer cells relative to CJM 126 [23]: more potent than even the compound CJM 126

CCCCCCCCCCCCCCCCOP(=O)([O-])OCC[N+](C)(C)C [hexadecylphosphocoline]
responsiveness of MT-1 and MT-3 tumors to drug [13]: exquisitively sensitive

CN(Cc1cnc2nc(N)nc(N)c2n1)c1ccc(C(=O)N[C@@H](CCC(=O)O)C(=O)O)cc1 [methotrexate]
responsiveness of MT-1 and MT-3 tumors to drug [13]: completely unresponsive

CC[C@]1(O)C[C@H]2CN(CCc3c([nH]c4ccccc34)[C@@](C(=O)OC)(c3cc4c(cc3OC)N(C=O)[C@H]3[C@@](O)(C(=O)OC)[C@H](OC(C)=O)[C@]5(CC)C=CCN6CC[C@]43[C@@H]65)C2)C1 [vincristine]
responsiveness of MT-1 and MT-3 tumors to drug [13]: completely unresponsive

— patent publication US6034246A, “2-arylbenzazole compounds” (Cancer Research Campaign Technology Limited, priority 1995, dated 2000)
